The values below come from patent publication US10888553B2, “Use of non-transition metal coordinated dipyridoxyl compounds to prevent and treat chemotherapy-induced PSN” (KARLSSON-TUNER INVEST AS, priority 2016, dated 2021).

For data set [1] the following is noted: relative to mangafodipir; cited from earlier work.
The conditions of data set [2]: Ca^2+ binding to fodipir; cited from earlier work.
For data set [3] the following is noted: Mn^2+ binding to fodipir; cited from earlier work.
For data set [4] the following is noted: Zn^2+ binding to fodipir; cited from earlier work.
The nature of data set [5]: Platinum (Pt) urine excretion in rats receiving oxaliplatin i.v. after i.v. mangafodipir, fodipir or saline (Example 2). Conditions: 0-24 h urine; for recovery of oxaliplatin-derived Pt in urine, % of the administered dose: 26.4 μmol/kg i.v. 5 min before oxaliplatin 2 mg/kg i.v., administered Pt 277.5 μg, saline control 31.3%; for increase in Pt-excretion: versus saline control. It counts as in vivo, Wistar rats. As for the experimental part:
2 male Wistar rats (approximately 250 g) were injected i.v., via one of the tail veins, with 0.25 ml mangafodipir (20 mg/kg; Lot no. 303001, Nycomed Imaging AS) or fodipir (17.4 mg/kg; Lot no. PKJ 1285/113-14, Nycomed Imaging AS), each corresponding to 26.4 μmol/kg. Another control rat received saline instead of mangafodipir or fodipir. […] The rats were then immediately placed in metabolic cages for urine collection over a period of 0-24 hours. The urine samples were thereafter stored at −80° C. until Pt analysis. Before analysis, the samples were thawed and extensively shaken to obtain homogenous samples. A five ml aliquot was taken from each sample and 5 ml concentrated nitric acid was added. The samples were then resolved in a microwave oven and thereafter diluted with distilled water. The Pt content of each sample was analyzed by ICP-MS (Inductively Coupled Plasma Mass Spectrometry). […] This sample was treated in an identical manner to that of the urine samples and analyzed for its Pt content. Results are presented as total 0-24 h urine Pt content, expressed as the total amount, as well as, as percentage of the injected dose.

The next data set relates to CT26 colon cancer cells. Conditions: cited from earlier work.
The conditions of data set [6]: in vivo; cited from earlier work.
The conditions of data set [7]: patients, single dose, over a 5-day period; cited from earlier work.
For data set [8] the following is noted: cited from earlier work.
The conditions of data set [9]: cited from earlier work; for Mn^2+ content released from fodipir or its metabolites: intravenous, MRI dose 5-10 μmol/kg.
For data set [10] the following is noted: 10 μmol/kg mangafodipir in 14 of 15 cycles, accumulated dose 140 μmol/kg; patient showed PD-like neurological symptoms; cited from earlier work.

Read-outs that look alike come from different tables or passages of the source.

For the molecule `Cc1ncc(COP(=O)([O-])O)c(CN(CCN(CC(=O)O)Cc2c(COP(=O)([O-])O)cnc(C)c2O)CC(=O)O)c1O.Cc1ncc(COP(=O)([O-])O)c(CN(CCN(CC(=O)O)Cc2c(COP(=O)([O-])O)cnc(C)c2O)CC(=O)O)c1O.Cc1ncc(COP(=O)([O-])O)c(CN(CCN(CC(=O)O)Cc2c(COP(=O)([O-])O)cnc(C)c2O)CC(=O)O)c1O.Cc1ncc(COP(=O)([O-])O)c(CN(CCN(CC(=O)O)Cc2c(COP(=O)([O-])O)cnc(C)c2O)CC(=O)O)c1O.Cc1ncc(COP(=O)([O-])O)c(CN(CCN(CC(=O)O)Cc2c(COP(=O)([O-])O)cnc(C)c2O)CC(=O)O)c1O.[Ca+2].[Ca+2].[Ca+2].[Ca+2].[Mn+2]` [calmangafodipir], the “manganese retention (and brain retention) reduced to” value in [1] was “about 50%”.

Turning to `Cc1ncc(COP(=O)(O)O)c(CN(CCN(CC(=O)O)Cc2c(COP(=O)(O)O)cnc(C)c2O)CC(=O)O)c1O` [fodipir, N,N′-bis-(pyridoxyl-5-phosphate)-ethylenediamine-N,N′-diacetic acid], the figures for the “log formation constant (log KML)” value in [2], in data set [3] and in data set [4] were 9, 15 and 18, respectively. Moreover, the “recovery of oxaliplatin-derived Pt in urine, % of the administered dose” value in data set [5] is given as 43.4%. Also, in [5], the “increase in Pt-excretion” value was 40.6%. In addition, in the data set on CT26 colon cancer cells (fodipir 10 μM), the “effect of fodipir on cell killing in the lower concentration range of oxaliplatin” value is “additive effect”. In the data set on CT26 colon cancer cells (fodipir 100 μM alone), the “cell killing activity of fodipir towards CT26 colon cancer cells” value is reported as “almost complete cell killing activity”. Besides, the “interference of fodipir with the cancer cell killing ability of oxaliplatin” value in the data set on CT26 colon cancer cells (fodipir 10, 30, 100 μM) was “Neither 10, 30, nor 100 μM fodipir interfered negatively”.

Turning to `O=C(O)C(=O)O.[NH-][C@@H]1CCCC[C@H]1[NH-].[Pt+2]` [oxaliplatin], in [6], the “terminal Pt half-life in red blood cells (RBC)” value is recorded as “about 50 days” and the volume of distribution result is “about 600 litres”. For the same molecule, the “killing of CT26 cells by oxaliplatin” value in the data set with CT26 colon cancer cells (oxaliplatin alone) is “killed CT26 cells in a concentration-dependent manner”. In data set [7], the “Pt dose excreted in feces” value is 2.1% and the “Pt dose excreted in the urine” value is listed as 53.8%.

As for mangafodipir, the “mean plasma Mn content” value in data set [8] (after eight cycles with 5 μmol/kg mangafodipir co-treatment (accumulated 40 μmol/kg), before 11.8±5.5 nM) was 19.8 ± 4.3 nM. Moreover, in [8] (patients with PSN grade 2 or worse on a 1-3 scale), the “pre-existing oxaliplatin-induced PSN after combined oxaliplatin and mangafodipir treatment” value was “improved”. Moreover, in data set [5], the “recovery of oxaliplatin-derived Pt in urine, % of the administered dose” value was determined as 33.8% and the “increase in Pt-excretion” value is reported as 8.0%. The “Mn^2+ that stays bound” value in data set [9] (MRI dose 5-10 μmol/kg injected) is given as 20%. The “Mn^2+ content released from fodipir or its metabolites” value in [9] is “About 80%”. Moreover, the “Mn^2+ content released from fodipir or its metabolites” value in data set [9] (listed as Mangafodipir) is reported as “about 80%”. The “brain MRI finding” value in [10] was “increased T1-weighted signal intensity in the basal ganglia”.
